Measurements taken from US10112918B2, “15-oxospiramilactone derivatives, preparation method and uses thereof” (Kunming Institute of Botany, The Chinese Academy of Sciences, priority 2013, dated 2018).
Where two headings read alike, the source gives them in different places. Values belong to the molecule of their own block, whether it stands above or below them.

Tests used:
Format in all cases: cell-based
[1] = test system: SW-480 (human colon cancer cells); assay: MTT inhibition of tumor cell growth, SW-480
Protocol: (§1) 1. Inoculating cells: the culture medium DMEM or RMPI1640 containing 10% fetal bovine serum was used to prepare a single cell suspension, and the cell suspension was inoculated to a 96-well plate at 5000-10000 cells per well (100 μl for each well); Adherent cells were inoculated and cultured for 12 h in advance. HL-60 (human promyelocytic leukemia cells), SMMC-7721 (human hepatoma cells), A-549 (Human lung adenocarcinoma cells), MCF-7 (human breast cancer cells), SW-480 (human colon cancer cells) were purchased from the Cell Bank of the Chinese Academy of Sciences, Shanghai.
(§2) 2. The solution of the compound to be tested (40 μM for primary screening; 5 concentrations were set for gradient re-screening for the compounds which achieve about 50% inhibition of tumor cell growth at 40 μM) was added, the final volume of each well was 200 μl, and triplicate wells were set for each test.
(§3) 3. Coloration: After culturing at 37° C. for 48 h, MTT solution (20 μl) was added to each well. After incubation for another 4 h, the culture was stopped. The supernatant in each well was pipetted and discarded, and 200 μl SDS solution (10%) was added to each well. Incubation was performed overnight (at 37° C.), to completely dissolve the crystal.
(§4) 4. Colorimetric assay: ELISA Reader (Bio-Rad 680) was used to obtain the light absorption for each well at a wavelength of 595 nm, the results were recorded. A cell growth curve was plotted with the concentration as abscissa and the cell survival percentage as ordinate. The two-point method (Reed and Muench method) was used to calculate the IC50 of the compound.

[2] = test system: HL-60 (human promyelocytic leukemia cells); assay: MTT inhibition of tumor cell growth, HL-60
Protocol: as §1, §2, §3, §4

[3] = test system: SMMC-7721 (human hepatoma cells); assay: MTT inhibition of tumor cell growth, SMMC-7721
Protocol: as §1, §2, §3, §4

[4] = test system: A-549 (Human lung adenocarcinoma cells); assay: MTT inhibition of tumor cell growth, A-549
Protocol: as §1, §2, §3, §4

[5] = test system: MCF-7 (human breast cancer cells); assay: MTT inhibition of tumor cell growth, MCF-7
Protocol: as §1, §2, §3, §4

[6] = Homo sapiens, SW480, 48 h, Table 6, 7-carbonyl derivatives, read-out: IC50 SW-480, 7-carbonyl derivatives
[7] = Homo sapiens, SW480, 48 h, Table 6, 7-hydroxyl derivatives and controls, read-out: IC50 SW-480, 7-hydroxyl derivatives
[8] = Homo sapiens, SW480, 48 h, Table 6, double Michael reaction acceptor derivatives, read-out: IC50 SW-480, derivatives having double Michael reaction acceptor
[9] = Homo sapiens, HL-60, 48 h, Table 7 (first), alkaloid derivatives
[10] = Homo sapiens, SMMC-7721, 48 h, Table 7 (first), alkaloid derivatives
[11] = Homo sapiens, A549, 48 h, Table 7 (first), alkaloid derivatives
[12] = Homo sapiens, MCF7, 48 h, Table 7 (first), alkaloid derivatives
[13] = Homo sapiens, SW480, 48 h, Table 7 (first), alkaloid derivatives, read-out: IC50 SW-480
[14] = Table 1, 7-hydroxy derivatives of S-3, 48 h
[15] = Table 2, derivatives having potential Michael reaction acceptor, 48 h
[16] = Table 3, single Michael reaction acceptor, modified lactonic ring, 48 h
[17] = Table 4, derivatives obtained by reduction of the lactonic ring, 48 h
[18] = Table 5, derivatives having double Michael reaction acceptor, 48 h
[19] = Table 7 (first), alkaloid derivatives, 48 h

SMILES: C=C1C(=O)C23CC[C@H]1CC2[C@@]12CCC[C@@](C)(COS(=O)OC1)C2CC3=O (stereo partly drawn) [Compound 42]
IC50 [1, 6]: 1830 nM

SMILES: C=C1C(=O)C23CC[C@@H](CC2[C@]2(COC(=O)CC)CCC[C@@](C)(COC(=O)CC)C12)C(=C)C3=O (stereo partly drawn) [Compound 74c]
IC50 [1, 8]: 330 nM

SMILES: C=C1C(=O)[C@]23CC[C@H]1CC2[C@@]12CCC[C@@]4(C)CN(CCO)[C@@H]1O[C@@H]3CC42 (stereo partly drawn) [Compound 82]
IC50 ([2]; Homo sapiens, HL-60, Table 7 (first), alkaloid derivatives, 48 h): 19300 nM | IC50 ([3]; Homo sapiens, SMMC-7721, Table 7 (first), alkaloid derivatives, 48 h): 23600 nM | IC50 ([4]; Homo sapiens, A549, Table 7 (first), alkaloid derivatives, 48 h): 18600 nM | IC50 ([5]; Homo sapiens, MCF7, Table 7 (first), alkaloid derivatives, 48 h): 10400 nM | IC50 ([1]; Homo sapiens, SW480, Table 7 (first), alkaloid derivatives, 48 h, read-out: IC50 SW-480): 14000 nM

SMILES: C=C1C(=O)[C@@]23CC[C@@H](CC2[C@@]24CCC[C@@](C)(CN(CCO[Si](C)(C)C(C)(C)C)C2)C14)C(=C)C3=O (stereo partly drawn) [Compound 92]
IC50 [2, 9]: 1390 nM | IC50 [3, 10]: 2630 nM | IC50 [4, 11]: 1550 nM | IC50 [5, 12]: 2900 nM | IC50 [1, 13]: 2780 nM

SMILES: CC(=O)O[C@H]1C(=O)[C@@]2(C)[C@H]([C@H](OC(=O)c3ccccc3)[C@]3(O)C[C@H](OC(=O)[C@H](O)[C@@H](NC(=O)c4ccccc4)c4ccccc4)C(C)=C1C3(C)C)[C@]1(OC(C)=O)CO[C@@H]1C[C@@H]2O [TAXOL, reference compound]
IC50 ([2]; Homo sapiens, HL-60, 48 h, Table 1, 7-hydroxy derivatives of S-3): < 8 nM | IC50 ([2]; Homo sapiens, HL-60, 48 h, Table 2, derivatives having potential Michael reaction acceptor): < 8 nM | IC50 ([2]; Homo sapiens, HL-60, 48 h, Table 3, single Michael reaction acceptor, modified lactonic ring): < 8 nM | IC50 ([2]; Homo sapiens, HL-60, 48 h, Table 4, derivatives obtained by reduction of the lactonic ring): < 8 nM | IC50 ([2]; Homo sapiens, HL-60, 48 h, Table 5, derivatives having double Michael reaction acceptor): < 8 nM | IC50 [2, 9]: < 8 nM | IC50 ([3]; Homo sapiens, SMMC-7721, 48 h, Table 1, 7-hydroxy derivatives of S-3): < 8 nM | IC50 ([3]; Homo sapiens, SMMC-7721, 48 h, Table 2, derivatives having potential Michael reaction acceptor): < 8 nM | IC50 ([3]; Homo sapiens, SMMC-7721, 48 h, Table 3, single Michael reaction acceptor, modified lactonic ring): < 8 nM | IC50 ([3]; Homo sapiens, SMMC-7721, 48 h, Table 4, derivatives obtained by reduction of the lactonic ring): < 8 nM | IC50 ([3]; Homo sapiens, SMMC-7721, 48 h, Table 5, derivatives having double Michael reaction acceptor): < 8 nM | IC50 [3, 10]: < 8 nM | IC50 ([4]; Homo sapiens, A549, 48 h, Table 1, 7-hydroxy derivatives of S-3): < 8 nM | IC50 ([4]; Homo sapiens, A549, 48 h, Table 2, derivatives having potential Michael reaction acceptor): < 8 nM | IC50 ([4]; Homo sapiens, A549, 48 h, Table 3, single Michael reaction acceptor, modified lactonic ring): < 8 nM | IC50 ([4]; Homo sapiens, A549, 48 h, Table 4, derivatives obtained by reduction of the lactonic ring): < 8 nM | IC50 ([4]; Homo sapiens, A549, 48 h, Table 5, derivatives having double Michael reaction acceptor): < 8 nM | IC50 [4, 11]: < 8 nM | IC50 ([5]; Homo sapiens, MCF7, 48 h, Table 1, 7-hydroxy derivatives of S-3): < 8 nM | IC50 ([5]; Homo sapiens, MCF7, 48 h, Table 2, derivatives having potential Michael reaction acceptor): < 8 nM | IC50 ([5]; Homo sapiens, MCF7, 48 h, Table 3, single Michael reaction acceptor, modified lactonic ring): < 8 nM | IC50 ([5]; Homo sapiens, MCF7, 48 h, Table 4, derivatives obtained by reduction of the lactonic ring): < 8 nM | IC50 ([5]; Homo sapiens, MCF7, 48 h, Table 5, derivatives having double Michael reaction acceptor): < 8 nM | IC50 [5, 12]: < 8 nM | IC50 ([1]; Homo sapiens, SW480, 48 h, Table 1, 7-hydroxy derivatives of S-3, read-out: IC50 SW-480): < 8 nM | IC50 ([1]; Homo sapiens, SW480, 48 h, Table 2, derivatives having potential Michael reaction acceptor, read-out: IC50 SW-480): < 8 nM | IC50 ([1]; Homo sapiens, SW480, 48 h, Table 3, single Michael reaction acceptor, modified lactonic ring, read-out: IC50 SW-480): < 8 nM | IC50 ([1]; Homo sapiens, SW480, 48 h, Table 4, derivatives obtained by reduction of the lactonic ring, read-out: IC50 SW-480): < 8 nM | IC50 ([1]; Homo sapiens, SW480, 48 h, Table 5, derivatives having double Michael reaction acceptor, read-out: IC50 SW-480): < 8 nM | IC50 [1, 7]: < 8 nM | IC50 [1, 13]: < 8 nM

SMILES: [NH2][Pt]([NH2])([Cl])[Cl] [cis-DDP, reference compound]
IC50 [2, 14]: 1810 nM | IC50 [2, 15]: 1810 nM | IC50 [2, 16]: 1810 nM | IC50 [2, 17]: 1810 nM | IC50 [2, 18]: 1810 nM | IC50 [2, 19]: 3080 nM | IC50 [3, 14]: 8860 nM | IC50 [3, 15]: 8860 nM | IC50 [3, 16]: 8860 nM | IC50 [3, 17]: 8860 nM | IC50 [3, 18]: 8860 nM | IC50 [3, 19]: 10200 nM | IC50 [4, 14]: 11700 nM | IC50 [4, 15]: 11700 nM | IC50 [4, 16]: 11700 nM | IC50 [4, 17]: 11700 nM | IC50 [4, 18]: 11700 nM | IC50 [4, 19]: 9080 nM | IC50 [5, 14]: 15900 nM | IC50 [5, 15]: 15900 nM | IC50 [5, 16]: 15900 nM | IC50 [5, 17]: 15900 nM | IC50 [5, 18]: 15900 nM | IC50 [5, 19]: 17500 nM | IC50 ([1]; Table 1, 7-hydroxy derivatives of S-3, 48 h, read-out: IC50 SW-480): 16600 nM | IC50 ([1]; Table 2, derivatives having potential Michael reaction acceptor, 48 h, read-out: IC50 SW-480): 16600 nM | IC50 ([1]; Table 3, single Michael reaction acceptor, modified lactonic ring, 48 h, read-out: IC50 SW-480): 16600 nM | IC50 ([1]; Table 4, derivatives obtained by reduction of the lactonic ring, 48 h, read-out: IC50 SW-480): 16600 nM | IC50 ([1]; Table 5, derivatives having double Michael reaction acceptor, 48 h, read-out: IC50 SW-480): 16600 nM | IC50 ([1]; Table 6, 7-hydroxyl derivatives and controls, 48 h, read-out: IC50 SW-480, 7-hydroxyl derivatives): 11100 nM | IC50 ([1]; Table 7 (first), alkaloid derivatives, 48 h, read-out: IC50 SW-480): 12000 nM

Now from value to molecule:

IC50 [1, 7]: 2970 nM
SMILES: C=C1C(=O)C23CC[C@H]1CC2[C@]1(COC(=O)c2cccs2)CCC[C@@](C)(COC(=O)c2cccs2)C1C[C@H]3O (stereo partly drawn) [Compound 63]

IC50 [1, 7]: 1690 nM
SMILES: C=C1C(=O)C23CC[C@H]1CC2[C@]1(COC(C)=O)CCC[C@@](C)(COC(=O)c2cccs2)C1C[C@H]3O (stereo partly drawn) [Compound 70]

IC50 [1, 7]: 810 nM
SMILES: C=C1C(=O)C23CC[C@H]1CC2[C@]1(COC(=O)CC)CCC[C@@](C)(COC(=O)CC)C1C[C@H]3O (stereo partly drawn) [Compound 72c]

IC50 [1, 7]: 520 nM
SMILES: C=C1C(=O)C23CC[C@H]1CC2[C@]1(COC(=O)c2ccccc2)CCC[C@@](C)(COC(=O)c2ccccc2)C1C[C@H]3O (stereo partly drawn) [Compound 72d]

IC50 [1, 6]: 690 nM
SMILES: C=C1C(=O)C23CC[C@H]1CC2[C@]1(COC(=O)CC)CCC[C@@](C)(COC(=O)CC)C1CC3=O (stereo partly drawn) [Compound 73c]

IC50 [1, 6]: 620 nM
SMILES: C=C1C(=O)C23CC[C@H]1CC2[C@]1(COC(=O)c2ccccc2)CCC[C@@](C)(COC(=O)c2ccccc2)C1CC3=O (stereo partly drawn) [Compound 73d]

IC50 [1, 8]: 150 nM
SMILES: C=C1C(=O)C23CC[C@@H](CC2[C@]2(COC(=O)c4ccccc4)CCC[C@@](C)(COC(=O)c4ccccc4)C12)C(=C)C3=O (stereo partly drawn) [Compound 74d]
